Measurements reported in patent publication US9493446B2, “Orexin receptor antagonists which are [ortho bi-(hetero-)aryl]-[2-(meta bi-(hetero-)aryl)-pyrrolidin-1-yl]-methanone derivatives” (Actelion Pharmaceuticals Ltd, priority 2012, dated 2016).
Where two headings read alike, the source gives them in different places.

Key:
human orexin-2 receptor = human orexin-2 receptor (Homo sapiens (Human), UniProt O43614); assay: Intracellular calcium measurement (FLIPR), CHO cells expressing human orexin-2 receptor, 3 nM orexin-A; type: cell-based; conditions: read-out: IC50 OX2
human orexin-2 receptor, sequence (O43614 whole entry): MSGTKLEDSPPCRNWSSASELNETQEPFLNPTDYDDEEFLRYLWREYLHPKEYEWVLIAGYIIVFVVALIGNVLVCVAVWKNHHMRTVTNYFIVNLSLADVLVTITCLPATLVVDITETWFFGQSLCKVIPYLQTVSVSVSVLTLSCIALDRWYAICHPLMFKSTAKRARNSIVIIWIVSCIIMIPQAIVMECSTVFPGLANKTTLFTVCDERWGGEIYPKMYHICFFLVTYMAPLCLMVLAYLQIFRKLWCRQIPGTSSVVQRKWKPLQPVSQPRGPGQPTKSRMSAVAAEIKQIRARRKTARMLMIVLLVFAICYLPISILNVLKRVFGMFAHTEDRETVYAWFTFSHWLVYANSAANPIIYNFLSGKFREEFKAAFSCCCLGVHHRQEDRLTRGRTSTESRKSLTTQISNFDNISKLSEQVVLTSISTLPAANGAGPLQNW
Procedure, shortened: (§1)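 CHO cells stably expressing each receptor were loaded with 3 μM fluo-4 AM plus 5 mM probenecid for 50 min at 37 °C, then equilibrated 30 min at rt.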

orexin-1 = orexin-1 (Homo sapiens (Human), UniProt O43613); assay: Intracellular calcium measurement (FLIPR), CHO cells expressing human orexin-1 receptor, 3 nM orexin-A; type: cell-based; conditions: read-out: IC50 OX1
orexin-1, sequence (O43613 whole entry): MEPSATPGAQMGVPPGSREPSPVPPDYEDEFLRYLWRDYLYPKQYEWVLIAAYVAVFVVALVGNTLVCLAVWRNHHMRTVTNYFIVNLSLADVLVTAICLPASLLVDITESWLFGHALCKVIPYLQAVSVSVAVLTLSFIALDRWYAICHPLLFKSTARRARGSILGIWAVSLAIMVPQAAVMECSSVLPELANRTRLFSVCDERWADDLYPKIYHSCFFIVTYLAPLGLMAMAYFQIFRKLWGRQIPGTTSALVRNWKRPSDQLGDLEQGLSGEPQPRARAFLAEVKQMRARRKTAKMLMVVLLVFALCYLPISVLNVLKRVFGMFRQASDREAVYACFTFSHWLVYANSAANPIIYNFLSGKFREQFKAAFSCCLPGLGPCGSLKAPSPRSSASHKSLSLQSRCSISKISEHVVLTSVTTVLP
Procedure, shortened: as §1

[1] = CHO cells expressing human orexin-2 receptor, FLIPR, 3 nM orexin-A, geometric mean if determined several times
[2] = CHO cells expressing human orexin-1 receptor, FLIPR, 3 nM orexin-A, geometric mean if determined several times

Compound | IC50 (human orexin-2 receptor; [1]) | IC50 (orexin-1; [2]) | IC50 (orexin-1) | IC50 (human orexin-2 receptor)
Cc1c(Cl)cccc1-c1noc([C@@H]2CCCN2C(=O)c2ncsc2-c2cccc(Cl)c2)n1 [compound 94] | 201 nM | 237 nM |  | 
Cc1ccc(C(=O)N2CCC[C@H]2c2noc(-c3ccccc3OC(F)(F)F)n2)c(-n2nccn2)c1 [compound 374, (4-Methyl-2-[1,2,3]triazol-2-yl-phenyl)-{(S)-2-[5-(2-trifluoromethoxy-phenyl)-[1,2,4]oxadiazol-3-yl]-pyrrolidin-1-yl}-methanone] | 11 nM | 18 nM |  | 
COc1cc(C(=O)N2CCC[C@H]2c2nc(-c3cccc(Cl)c3C)no2)c(-n2cccn2)cc1C [compound 105] | 8 nM |  | 133 nM | 
Cc1ccc(-n2nccn2)c(C(=O)N2CCC[C@H]2c2nc(-c3cccc4[nH]ccc34)no2)c1 [compound 39, {(S)-2-[3-(1H-Indol-4-yl)-[1,2,4]oxadiazol-5-yl]-pyrrolidin-1-yl}-(5-methyl-2-[1,2,3]triazol-2-yl-phenyl)-methanone] | 92 nM | 658 nM |  | 
CCOc1ncccc1-c1noc([C@@H]2CCCN2C(=O)c2cc(C#N)ccc2-n2nccn2)n1 [compound 279, 3-{(S)-2-[3-(2-Ethoxy-pyridin-3-yl)-[1,2,4]oxadiazol-5-yl]-pyrrolidine-1-carbonyl}-4-[1,2,3]triazol-2-yl-benzonitrile] | 135 nM | 296 nM |  | 
Cc1cc(-n2nccn2)c(C(=O)N2CCC[C@H]2c2noc(-c3cccc(Cl)c3C)n2)cc1Cl [compound 371] | 7 nM |  | 18 nM | 
Cc1c(Cl)cccc1-c1nnc([C@]2(C)CCCN2C(=O)c2cc(Cl)ccc2-n2nccn2)[nH]1 [compound 554] |  | 120 nM |  | 34 nM
COc1cc(C(=O)N2CCC[C@H]2c2noc(-c3cc(C)ccc3C)n2)c(-n2nccn2)cc1Cl [compound 408] | 2 nM | 31 nM |  | 
COc1ccc(-c2ccccc2)c(C(=O)N2CCC[C@H]2c2nc(-c3cccc(Cl)c3C)no2)c1 [compound 101, {(S)-2-[3-(3-Chloro-2-methyl-phenyl)-[1,2,4]oxadiazol-5-yl]-pyrrolidin-1-yl}-(4-methoxy-biphenyl-2-yl)-methanone] | 6 nM | 9 nM |  | 
COc1c(F)cccc1-c1noc([C@@H]2CCCN2C(=O)c2cccc(Cl)c2-n2nccn2)n1 [compound 297] | 478 nM |  | 690 nM | 
COc1cc(C(=O)N2CCC[C@H]2c2nc(-c3ccccc3Cl)no2)c(-n2nccn2)cc1C [compound 239] | 24 nM |  | 378 nM | 
COc1c(F)cccc1-c1noc([C@@H]2CCCN2C(=O)c2cccc(C)c2-n2nccn2)n1 [compound 197, {(S)-2-[3-(3-Fluoro-2-methoxy-phenyl)-[1,2,4]oxadiazol-5-yl]-pyrrolidin-1-yl}-(3-methyl-2-[1,2,3]triazol-2-yl-phenyl)-methanone] | 93 nM | 354 nM |  | 
CCOc1c(F)cccc1-c1nc([C@@H]2CCCN2C(=O)c2cc(OC)c(Cl)cc2-n2nccn2)no1 [compound 369] | 2 nM | 15 nM |  | 
Cc1cc(C(=O)N2CCC[C@H]2c2nc(-c3cccc(F)c3C)no2)c(-n2nccn2)cc1C [compound 247, (4,5-Dimethyl-2-[1,2,3]triazol-2-yl-phenyl)-{(S)-2-[3-(3-fluoro-2-methyl-phenyl)-[1,2,4]oxadiazol-5-yl]-pyrrolidin-1-yl}-methanone] | 3 nM | 17 nM |  | 
Cc1ccc(-n2nccn2)c(C(=O)N2CCC[C@H]2c2nc(-c3ccc(C)c(C)c3)no2)c1 [compound 80, {(S)-2-[3-(3,4-Dimethyl-phenyl)-[1,2,4]oxadiazol-5-yl]-pyrrolidin-1-yl}-(5-methyl-2-[1,2,3]triazol-2-yl-phenyl)-methanone] | 16 nM | 252 nM |  | 
